Experimental data from the NIST ThermoML archive (doi:10.1021/je7001946).

Columns and labels:
[1] = 101.3 kPa, Liquid
[2] = mn = molality of the nth substance listed, in mol/kg; settings: 101.3 kPa, Liquid; for speed of sound: Pulse-echo method

CC#N [acetonitrile]
[1]
Settings	mass density
288.15 K	787.303 kg/m3 [middle of 5 runs]
293.15 K	781.923 kg/m3 [middle of 5 runs]
298.15 K	776.525 kg/m3 [middle of 5 runs]
303.15 K	771.097 kg/m3 [middle of 5 runs]
308.15 K	765.64 kg/m3 [middle of 5 runs]
313.15 K	760.151 kg/m3 [middle of 5 runs]
323.15 K	749.07 kg/m3 [middle of 5 runs]

Settings	speed of sound [m/s]
[1], 298.15 K, Pulse-echo method	1278.3

CC#N [acetonitrile] + [Br-].[Br-].[Mn+2]
[2], m2 = 0
Settings	mass density [kg/m3]
288.15 K	787.299
293.15 K	781.923
298.15 K	776.525
303.15 K	771.097
308.15 K	765.64
313.15 K	760.148
323.15 K	749.055

CC#N [acetonitrile] + [Br-].[Br-].[Zn+2]
[2], m2 = 0
Settings	mass density [kg/m3]
288.15 K	787.313
293.15 K	781.935
298.15 K	776.535
303.15 K	771.106
308.15 K	765.65
313.15 K	760.159
323.15 K	749.07

CC#N [acetonitrile] + [Br][Co][Br]
[2], m2 = 0
Settings	mass density [kg/m3]	speed of sound [m/s]
288.15 K	787.315	–
293.15 K	781.939	–
298.15 K	776.538	1278.3
303.15 K	771.112	–
308.15 K	765.653	–
313.15 K	760.164	–
323.15 K	749.073	–

CC#N [acetonitrile] + [Cl-].[Cl-].[Zn+2]
[2], m2 = 0
Settings	mass density [kg/m3]
288.15 K	787.303
293.15 K	781.922
298.15 K	776.522
303.15 K	771.095
308.15 K	765.637
313.15 K	760.151
323.15 K	749.071

CC#N [acetonitrile] + [Cl][Co][Cl]
[2], m2 = 0
Settings	mass density [kg/m3]
288.15 K	787.297
293.15 K	781.919
298.15 K	776.518
303.15 K	771.09
308.15 K	765.631
313.15 K	760.142
323.15 K	749.056

[Cl][Co][Cl] [cobalt chloride] + CC#N
[2]
Settings	mass density, 288.15 K [kg/m3]	mass density, 293.15 K [kg/m3]	mass density, 298.15 K [kg/m3]	mass density, 303.15 K [kg/m3]	mass density, 308.15 K [kg/m3]	mass density, 313.15 K [kg/m3]	mass density, 323.15 K [kg/m3]	speed of sound, 298.15 K [m/s]
m1 = 0.08764	795.418	790.014	784.59	779.137	773.654	768.139	756.997	1279.8
m1 = 0.1171	798.185	792.779	787.348	781.889	776.401	770.881	759.736	1280.5
m1 = 0.146	800.89	795.475	790.038	784.571	779.078	773.545	762.939	1281.1
m1 = 0.1743	803.599	798.184	792.742	787.274	781.773	776.24	765.073	1281.8
m1 = 0.2031	806.356	800.934	795.487	790.011	784.51	778.973	767.796	1282.5
m1 = 0.2318	809.121	803.697	798.244	792.763	787.256	781.714	770.528	1283.2
m1 = 0.26	811.836	806.407	800.953	795.467	789.954	784.407	773.206	1284
m1 = 0.2873	814.493	809.058	803.595	798.109	792.59	787.039	775.843	1284.8

[Cl-].[Cl-].[Zn+2] [zinc chloride] + CC#N
mass density [kg/m3], [2]
Settings	m1 = 0.05257	m1 = 0.06571	m1 = 0.07576	m1 = 0.08438	m1 = 0.1077	m1 = 0.128	m1 = 0.1487	m1 = 0.1684	m1 = 0.1902	m1 = 0.2114
288.15 K	791.935	793.095	794	794.764	796.85	798.676	800.536	802.335	804.302	806.244
293.15 K	786.551	787.712	788.618	789.38	791.469	793.289	795.155	796.955	798.922	800.862
298.15 K	781.15	782.313	783.217	783.985	786.068	787.887	789.746	791.541	793.519	795.456
303.15 K	775.724	776.886	777.79	778.553	780.64	782.455	784.317	786.115	788.091	790.032
308.15 K	770.266	771.431	772.33	773.096	775.184	777.003	778.858	780.661	782.635	784.575
313.15 K	764.781	765.94	766.841	767.607	769.697	771.516	773.372	775.165	777.148	779.089
323.15 K	753.694	754.859	755.76	756.526	758.618	760.435	762.295	764.103	766.072	768.014
